Data as given in ChEMBL document CHEMBL1137559, “Rational design of 5'-thiourea-substituted alpha-thymidine analogues as thymidine monophosphate kinase inhibitors capable of inhibiting mycobacterial growth” (J Med Chem, 2007).
Active and inactive are the calls of the source. The rule behind the calls is not given here.

Key:
Homo sapiens [1] = organism: Homo sapiens; assay: Inhibition of human TMPK expressed in Escherichia coli at 1 mM by spectrophotometric assay
Homo sapiens [2] = organism: Homo sapiens; assay: Inhibition of human TMPK expressed in Escherichia coli by spectrophotometric assay

Km (Homo sapiens [2]) [µM] | SMILES | Activity (Homo sapiens [1])
 | Cc1cn([C@@H]2C[C@@H](CNC(=O)NC[C@H]3C[C@H](n4cc(C)c(=O)[nH]c4=O)O[C@@H]3CO)[C@H](CO)O2)c(=O)[nH]c1=O | inactive
5 | Cc1cn([C@H]2C[C@H](O)[C@@H](COP(=O)(O)O)O2)c(=O)[nH]c1=O | 
